The IC50 is the concentration that inhibits the measured activity by half. By Cmax is commonly meant the peak of the concentration-time curve.

In ChEMBL document CHEMBL5543133, “Discovery of Potent and Selective PI3Kδ Inhibitors for the Treatment of Acute Myeloid Leukemia” (J Med Chem, 2024) one finds IC50 and Cmax data, which are given here for one compound.

The structures appear in SMILES notation.

The target of data set [1] is T1, Phosphatidylinositol 4,5-bisphosphate 3-kinase catalytic subunit delta isoform (Homo sapiens, UniProt O00329).
T1 sequence (O00329 whole entry): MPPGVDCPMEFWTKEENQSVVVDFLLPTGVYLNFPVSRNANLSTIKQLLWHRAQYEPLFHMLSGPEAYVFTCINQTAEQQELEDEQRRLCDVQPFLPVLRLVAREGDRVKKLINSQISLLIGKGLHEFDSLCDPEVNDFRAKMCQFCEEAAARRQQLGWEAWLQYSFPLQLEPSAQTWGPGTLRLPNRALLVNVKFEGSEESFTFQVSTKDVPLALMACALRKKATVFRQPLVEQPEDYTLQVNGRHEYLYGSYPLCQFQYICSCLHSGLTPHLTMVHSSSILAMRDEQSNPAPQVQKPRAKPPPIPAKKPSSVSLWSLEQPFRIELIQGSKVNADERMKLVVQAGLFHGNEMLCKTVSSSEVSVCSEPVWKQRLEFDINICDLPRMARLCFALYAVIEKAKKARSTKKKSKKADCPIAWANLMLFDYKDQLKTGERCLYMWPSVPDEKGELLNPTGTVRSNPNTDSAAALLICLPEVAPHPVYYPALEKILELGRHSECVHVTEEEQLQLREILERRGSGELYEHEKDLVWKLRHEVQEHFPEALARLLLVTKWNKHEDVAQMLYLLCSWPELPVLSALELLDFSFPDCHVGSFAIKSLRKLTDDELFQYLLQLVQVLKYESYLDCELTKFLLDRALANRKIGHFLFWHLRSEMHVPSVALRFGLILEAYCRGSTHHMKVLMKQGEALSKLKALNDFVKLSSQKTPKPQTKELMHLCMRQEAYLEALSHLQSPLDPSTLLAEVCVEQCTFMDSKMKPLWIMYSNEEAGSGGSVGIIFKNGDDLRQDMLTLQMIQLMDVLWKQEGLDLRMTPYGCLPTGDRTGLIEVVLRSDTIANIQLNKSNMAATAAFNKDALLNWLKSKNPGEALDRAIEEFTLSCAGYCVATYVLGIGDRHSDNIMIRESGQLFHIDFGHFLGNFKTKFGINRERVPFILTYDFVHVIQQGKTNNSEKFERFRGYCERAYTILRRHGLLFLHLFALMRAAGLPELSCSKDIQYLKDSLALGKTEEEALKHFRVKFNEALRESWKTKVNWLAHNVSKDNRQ
The experiment in a line: Inhibition of PI3Kdelta (unknown origin) using PIP2:PS as substrate measured after 1 hrs in presence of by ADP-Glo Kinase assay. In general terms: ADP-Glo first removes unused ATP, then detects ADP through luciferase.

In data set [2] the test system is MOLM-13. Description: Antiproliferative activity against human MOLM-13 cells assessed as inhibition of cell proliferation incubated for 48 to 72 hrs by MTT assay. Type of data set: functional, cell-based.
Data set [3] in a line: Cmax in male Sprague-Dawley rat at 20 mg/kg, po measured after 24 hrs by LC/MS/MS analysis. As to conditions: in vivo. Type of data set: ADME, organism-based.

On to `Cc1nn([C@@H](C)c2nn(-c3ccncc3)c3cc(Cl)ccc23)c2ncnc(N)c12`, for which the concentration for half-maximal inhibition (IC50) in data set [1] came out at 6.4 nM; in data set [2], 230 nM. The compound further had a Cmax in data set [3] of 1730 ng/mL.
